Literature values, collected in patent US4873092A, “Slow-releasing preparation” (Murata Kikai Kabushiki Kaisha, priority 1987, dated 1989).

Conditions: mouce

## COc1cccc2c1C(=O)c1c(O)c3c(c(O)c1C2=O)C[C@@](O)(C(=O)CO)C[C@@H]3O[C@H]1C[C@H](N)[C@H](O)[C@H](C)O1 [Adriamycin]
  LD50 value: 9.8 mg/kg
